Values of other authors as cited in patent US7479499B2 (Celgene Corporation, priority 2000, dated 2009).

Experiments:
[1] = system: metastatic colorectal cancer patients
[2] = system: patients with metastatic colorectal cancer; conditions: irinotecan monotherapy
[3] = second line treatment of colorectal cancer after 5FU

| Expected (%) Grade 1-4 Abdominal colic/pain ([2]; abdominal colic/pain, grade 1-4) | Expected (%) Grade 3-4 Abdominal colic/pain ([2]; abdominal colic/pain, grade 3-4) | Expected (%) Grade 1-4 Asthenia ([2]; asthenia, grade 1-4) | Expected (%) Grade 3-4 Asthenia ([2]; asthenia, grade 3-4) | Expected (%) Grade 1-4 Constipation ([2]; constipation, grade 1-4) | Expected (%) Grade 3-4 Constipation ([2]; constipation, grade 3-4) | Expected (%) Grade 1-4 Diarrhea (Late) ([2]; late diarrhea, grade 1-4) | Expected (%) Grade 3-4 Diarrhea (Late) ([2]; late diarrhea, grade 3-4) | Expected (%) Grade 1-4 Nausea ([2]; nausea, grade 1-4) | Expected (%) Grade 1-4 Vomiting ([2]; vomiting, grade 1-4) | Expected (%) Grade 3-4 Vomiting ([2]; vomiting, grade 3-4) | debilitating (Grade 3-4) late onset diarrhea, share of patients ([1]; late onset: more than 24 hours after administration) | early onset diarrhea, frequency ([1]; within 24 hours of drug administration) | Structure (SMILES) | complete responses ([1]; metastatic colorectal cancer) | partial responses, share of patients ([1]; metastatic colorectal cancer) | complete response rate [1, 3] | median duration of response [1, 3] | overall response rates [1, 3] |
| --- | --- | --- | --- | --- | --- | --- | --- | --- | --- | --- | --- | --- | --- | --- | --- | --- | --- | --- |
| – | – | – | – | – | – | – | – | – | – | – | – | – | O=c1[nH]cc(F)c(=O)[nH]1 [5FU, 5-fluorouracil] | extremely rare | less than 25% | – | – | – |
| 23.7% | 2.3% | 75.7% | 12.2% | 29.9% | 2.0% | 87.8% | 30.6% | 86.2% | 66.8% | 12.5% | 30-40% | uncommon | CCc1c2c(nc3ccc(OC(=O)N4CCC(N5CCCCC5)CC4)cc13)-c1cc3c(c(=O)n1C2)COC(=O)[C@]3(O)CC [Irinotecan, (4S)-4,11-diethyl-4-hydroxy-9-[(4-piperidino-piperidino)carbonyl-oxy]1H-pyranol-[3′,4′:6,7]indolizinol[1,2-b]quinoline-3,14-(4H,12H)dione] | – | – | less than one percent | 6.4 months | less than 20% |
